Source: patent publication US20230174571A1, “METHOD OF TREATING SHIP1-MEDIATED DISEASES USING PELOROL DERIVATIVES” (Zebrapeutics Inc., priority 2020, published 2023)

Tests used:
PAC1 = molecular target: T1, PAC1 (Mus musculus, UniProt Q9ES52); assay: Small angle X-ray scattering of PAC1; conditions: 190 μM PAC1 with 570 μM compound
T1 construct: PAC1 and PAC2 consists of phosphatase and C2 domain (residues aa 402-861 and aa 402-857 respectively); HMT-tag (His6-MBP-TEV site) (N); made in house; host or cells: E. coli
T1 sequence (Q9ES52 402-861): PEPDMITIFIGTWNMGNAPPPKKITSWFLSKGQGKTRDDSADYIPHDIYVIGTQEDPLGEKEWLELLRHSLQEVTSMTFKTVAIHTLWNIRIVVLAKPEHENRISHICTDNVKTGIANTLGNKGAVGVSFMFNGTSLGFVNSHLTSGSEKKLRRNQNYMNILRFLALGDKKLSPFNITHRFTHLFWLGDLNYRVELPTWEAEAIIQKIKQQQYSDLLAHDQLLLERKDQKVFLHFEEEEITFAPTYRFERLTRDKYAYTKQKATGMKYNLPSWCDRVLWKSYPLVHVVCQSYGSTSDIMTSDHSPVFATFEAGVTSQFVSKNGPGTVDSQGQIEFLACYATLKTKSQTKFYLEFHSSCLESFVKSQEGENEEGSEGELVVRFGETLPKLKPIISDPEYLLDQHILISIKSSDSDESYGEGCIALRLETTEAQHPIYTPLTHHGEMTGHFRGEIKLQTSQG
Procedure: Small angle X-ray scattering. PAC1 samples in 190 μM in 50 mM TrisHCl (pH7.4) 150 mM NaCl, 1 mM TCEP and 2% EtOH with and without 570 μM compound I-1 ([…]). Dynamic Light Scattering (DLS) data for PAC1 and PAC1-compound I-1 complexes were collected prior to SAXS data collection to confirm that all the samples are highly pure and suitable for data collection. The data collection was performed on a 3-pinhole camera (S-MAX3000; Rigaku Americas, The Woodlands, Tex.) equipped with a Rigaku MicroMaxp002 microfocus sealed tube (Cu Kα radiation at 1.54 Å) and a Confocal Max-Flux (CMF) optics system operating at 40 W (Rigaku). Scattering data were recorded using a 200 mm multiwire two-dimensional detector. The data for both samples and buffer were collected for 3 h for each sample within the range of 0.008≤s≤0.26 Å-1 and processed according to the method previously described, where s=4π sin θ/λ (Patel et al., 2011, Patel et al., 2010, Patel et al., 2012). The Normalized Spatial Discrepancy (NSD) of the non-liganded and liganded PAC1 models were 0.6 and 1.0 respectively.

[1] = tested on: SHIP1 (full length SHIP1, PPAC, PAC2); assay: In vitro phosphatase assay; format: biochemical; conditions: full length SHIP1, 293T derived PPAC, E. coli derived PPAC, and PAC2; 50 μM IP4
Procedure: In vitro phosphatase assay. The phosphatase assay was performed in 96-well microtiter plates with 10 ng of enzyme/well in a total volume of 25 μL in 20 mM Tris-HCl, pH 7.4, 150 mM NaCl, 0.05% Tween-20, 10 mM MgCl2 as described (Ong et al., 2007). Enzyme was incubated with or compound I-1 (dissolved in ethanol) for 10 minutes at 23° C., before the addition of 50 μM of inositol-1,3,4,5-tetrakisphosphate (IP4) (Echelon Bioscience Inc., Salt Lake City, Utah). The reaction was allowed to proceed for 10 minutes at 37° C. and the amount of inorganic phosphate released was assessed by the addition of Malachite
Green reagent and absorbance measurement at 650 nm. For enzyme kinetic determination, different concentrations of IP4 (0-300 μM) were used and the reactions were stopped at different time points. Initial velocities were calculated, and Kcat and KM were determined using GraphPad 6 software.

DDIT4 = DDIT4 expression in macrophages; format: cell-based; conditions: compound by itself
[2] = tested on: LPS-stimulated TNFα production in BMDM; assay: Continuous flow culture of BMDM, TNFα kinetics; format: cell-based, mouse
Procedure: Production of bone marrow-derived macrophages. Bone marrow-derived macrophages (BMDMs) were generated by first collecting femurs and tibias from mice, and then flushing out the bone marrow through a 26-G needle. Extracted cells were plated, in Mac media supplemented with 5 ng/ml each of CSF-1 and GM-CSF (Stem Cell Technologies, Vancouver, BC), on a 10-cm tissue culture plate for 2 hours at 37° C. Non-adherent cells were collected and replated at 9×10^6 cells per 10-cm tissue culture plate. Cells were then cultured in the presence of CSF-1 and GM-CSF. Differentiated BMDMs were used after 7 to 8 days. All cells were maintained in a 37° C., 5% CO2, 95% humidity incubator.
Continuous Flow Cultures. The continuous flow apparatus facilitates constant stimulation and removal of cell supernatants to determine kinetic profiles of cytokine production over time. BMDMs were seeded at 3×10^6 cells per well in a 24-well tissue culture plate that had been coated with poly-L-lysine (Thermo Fisher Scientific, Nepean, ON) and rinsed with PBS. After overnight incubation, culture media was removed and Leibovitz's L-15 (L-15) media (Invitrogen, Burlington, ON) supplemented with 3% FCS, 10 μM β-mercaptoethanol and 150 μM monothioglycolate was added. Cells were allowed to equilibrate in L-15 media for 1 hour before being placed in the continuous flow apparatus. Stimulation solution was made in the same media equilibrated at 37° C., and was passed through a modified inlet fitted to the well by a syringe pump (New Era Syringe Pumps Inc., Farmingdale, N.Y.). A flow rate of 150 μl per minute was used. At the same time, cell supernatants were removed from the well at the same flow rate, and fractions were collected at 5-minute intervals over the course of 3 hours. These fractions were analyzed for secreted TNFα levels by ELISA.

Cc1cc(O)cc2c1C1(C)CCC3C(C)(C)CCCC3(C)C1C2 (stereo not drawn) [Compound I-1]
overall conformation of PAC1 on binding (SAXS) (PAC1): results in a change in its overall conformation | activation of phosphatase activity [1]: could be activated

CC12CCC3C(C)(C)C(N)CCC3(C)C1Cc1cc(O)cc(O)c12 (stereo not drawn) [Compound I-2]
DDIT4 expression (DDIT4): by itself able to induce DDIT4 expression

IL10: anti-inflammatory cytokine interleukin-10
TNFα levels ([2]; LPS-stimulated SHIP1+/+ and STAT3+/+ BMDM): reduces | inhibition of 3-hour TNFα peak ([2]; LPS-stimulated STAT3−/− and SHIP1−/− (KO) BMDM): partly impaired | inhibition of 1-hour TNFα peak ([2]; LPS-stimulated STAT3−/− and SHIP1−/− BMDM): completely impaired
